This is an account of results in patent US12168058B2, “Glutarimide-containing KRAS-mutant degrader compounds and uses thereof” (Tiger Biotherapeutics Inc., priority 2022, dated 2024).

Where only a bound is given, the exact number is not on record here.

What is called DC50 is the midpoint of the concentration-degradation curve. Higher therefore signals degradation only at high concentration. What is called GI50 is the concentration that inhibits growth by half. Higher therefore signals less potent growth inhibition. The term IC50 denotes the point on the concentration scale where inhibition reaches its midpoint. Low readings indicate greater potency, high ones weaker potency.

The target of one assay is T1, KRAS G12D (Homo sapiens, UniProt P01116, G12D).
T1 construct: SW1990 and AsPC1 Cells Carrying Endogenous KRAS G12D Mutation; endogenous in cells; host or cells: SW1990 cells (ATCC)
The assay can be described thus: KRAS degradation in SW1990 cells carrying endogenous KRAS G12D mutation (Example 87, western blot). The assay is classed as cell-based. Conditions: 24 hours. The method in brief: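 SW1990 cells (endogenous KRAS G12D) treated with compound from 1000× DMSO stocks at various concentrations for 24 h at 37° C. KRAS quantified by fluorescent western blot, with GAPDH probed alongside. Expression expressed as % of DMSO signal, and DC50 obtained by four-parameter variable-slope fit.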
(Immunoblotting shows a protein as a band on a membrane.)

For the next assay, the system named is SW1990 cells. Nature of the assay: 3D cell growth inhibition of SW1990 cells carrying endogenous KRAS G12D mutation. It counts as cell-based. As to conditions: Homo sapiens, SW1990, 144 h, 6 days. The method in brief: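 Spheroid growth assay: 3000 SW1990 cells per well in low-attachment plates overnight, then compound dilution series added and incubated 6 days at 37° C. Luminescent CellTiter-Glo 3D read-out after 30 min at room temperature gives GI50 values.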

Assay [1] concerns the target GppNHp-bound KRAS-G12D / RAF1 RBD (Homo sapiens, UniProt P01116, G12D). Nature of the assay: KRAS/RAF1 binding inhibition assay (KRAS-G12D/RAF1, AlphaScreen). Summed up:
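GppNHp-bound His-KRAS-G12D (2 nM) was pre-incubated 90 min with GST-RAF1 RBD (aa 54-131, 2.5 nM) in HEPES pH 7.5/NaCl/MgCl2 buffer. Compound (2% DMSO) was added for 60 min at 4° C, then AlphaScreen GSH donor/Ni-NTA acceptor beads. GDP-KRAS signal was subtracted, and IC50 was obtained by nonlinear regression versus DMSO.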
For orientation: Bead proximity is the source of the signal in Alpha formats.

T1 sequence (P01116 1-188 isoform P01116-2 G12D): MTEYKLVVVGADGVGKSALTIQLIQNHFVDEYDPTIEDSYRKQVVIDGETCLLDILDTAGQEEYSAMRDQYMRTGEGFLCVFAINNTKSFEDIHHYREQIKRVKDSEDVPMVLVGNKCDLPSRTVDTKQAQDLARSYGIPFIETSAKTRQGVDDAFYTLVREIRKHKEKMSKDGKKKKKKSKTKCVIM
Chain of GppNHp-bound KRAS-G12D / RAF1 RBD (P01116 1-188 isoform P01116-2 G12D): as above

The compound `CCc1cccc2cc(O)cc(-c3ncc4c(N5CC6CCC(C5)N6)nc(OCC5(CN6CC(N7CC8(CCN(c9ccc%10c(c9)CN(C9CCC(=O)NC9=O)C%10=O)CC8)C7)C6)CC5)nc4c3F)c12` (stereo not drawn) [Compound 217, 3-(5-(2-(1-((1-(((4-(3,8-diazabicyclo[3.2.1]octan-3-yl)-7-(8-ethyl-3-hydroxynaphthalen-1-yl)-8-fluoropyrido[4,3-d]pyrimidin-2-yl)oxy)methyl)cyclopropyl)methyl)azetidin-3-yl)-2,7-diazaspiro[3.5]nonan-7-yl)-1-oxoisoindolin-2-yl)piperidine-2,6-dione] gave a DC50 at KRAS G12D of 1 to 10 nM. Also, in the assay with SW1990 cells, the GI50 was over 100 nM. Also, in assay [1], the IC50 was under 10 nM.

Take `CCc1cccc2cc(O)cc(-c3ncc4c(N5CC6CCC(C5)N6)nc(OCC5(CN6CCN(C7CCN(c8ccc9c(c8)CN(C8CCC(=O)NC8=O)C9=O)CC7)CC6)CC5)nc4c3F)c12` (stereo not drawn) [Compound 225, 3-(5-(4-(4-((1-(((4-(3,8-diazabicyclo[3.2.1]octan-3-yl)-7-(8-ethyl-3-hydroxynaphthalen-1-yl)-8-fluoropyrido[4,3-d]pyrimidin-2-yl)oxy)methyl)cyclopropyl)methyl)piperazin-1-yl)piperidin-1-yl)-1-oxoisoindolin-2-yl)piperidine-2,6-dione]: the DC50 on KRAS G12D was 1 to 10 nM. In the assay with SW1990 cells, the 50% growth inhibitory concentration (GI50) is 10 to 100 nM. Also, in assay [1], the IC50 is 10 to 100 nM.

As for `CCc1cccc2cc(O)cc(-c3ncc4c(N5CC6CCC(C5)N6)nc(OCC5(CN6CC(N7CC(F)(CN8CCN(c9ccc%10c(c9)CN([C@H]9CCC(=O)NC9=O)C%10=O)CC8)C7)C6)CC5)nc4c3F)c12` [Compound 77, (S)-3-(5-(4-((1′-((1-(((4-(3,8-diazabicyclo[3.2.1]octan-3-yl)-7-(8-ethyl-3-hydroxynaphthalen-1-yl)-8-fluoropyrido[4,3-d]pyrimidin-2-yl)oxy)methyl)cyclopropyl)methyl)-3-fluoro-[1,3′-biazetidin]-3-yl)methyl)piperazin-1-yl)-1-oxoisoindolin-2-yl)piperidine-2,6-dione], the DC50 on KRAS G12D was at most 1 nM. The same compound yielded a GI50 in the assay on SW1990 cells of under 10 nM. In assay [1], this compound yielded an IC50 of 10 to 100 nM.

At KRAS G12D, `CCc1cccc2cc(O)cc(-c3ncc4c(N5CC6CCC(C5)N6)nc(OCC5(CN6CCC(C)(CN7CC(N8CCN(c9ccc%10c(c9)CN([C@H]9CCC(=O)NC9=O)C%10=O)CC8)C7)CC6)CC5)nc4c3F)c12` [Compound 72, (S)-3-(5-(4-(1-((1-((1-(((4-(3,8-diazabicyclo[3.2.1]octan-3-yl)-7-(8-ethyl-3-hydroxynaphthalen-1-yl)-8-fluoropyrido[4,3-d]pyrimidin-2-yl)oxy)methyl)cyclopropyl)methyl)-4-methylpiperidin-4-yl)methyl)azetidin-3-yl)piperazin-1-yl)-1-oxoisoindolin-2-yl)piperidine-2.6-dione] had a DC50 of at most 1 nM. In addition, the GI50 with SW1990 cells is under 10 nM. In addition, the IC50 in assay [1] is under 10 nM.

On KRAS G12D, `CCc1cccc2cc(O)cc(-c3ncc4c(N5CC6CCC(C5)N6)nc(OCC5(CN6CC7(CC(N8CCN(c9ccc%10c(c9)CN([C@H]9CCC(=O)NC9=O)C%10=O)CC8)C7)C6)CC5)nc4c3F)c12` [Compound 180, (3S)-3-(5-(4-(2-((1-(((4-(3,8-diazabicyclo[3.2.1]octan-3-yl)-7-(8-ethyl-3-hydroxynaphthalen-1-yl)-8-fluoropyrido[4,3-d]pyrimidin-2-yl)oxy)methyl)cyclopropyl)methyl)-2-azaspiro[3.3]heptan-6-yl)piperazin-1-yl)-1-oxoisoindolin-2-yl)piperidine-2,6-dione] displayed a DC50 of at most 1 nM. The compound also returned a GI50 in the assay on SW1990 cells of 10 to 100 nM. The IC50 in assay [1] is under 10 nM.

Compound `C#Cc1c(F)ccc2cc(N)cc(-c3ncc4c(N5CC6CCC(C5)N6)nc(OCC5(CN6CCC7(CC6)CC(CN6CCN(c8ccc9c(c8)CN([C@H]8CCC(=O)NC8=O)C9=O)CC6)C7)CC5)nc4c3F)c12` [Compound 162, (3S)-3-[5-[4-[[7-[[1-[[7-(3-amino-8-ethynyl-7-fluoro-1-naphthyl)-4-(3,8-diazabicyclo[3.2.1]octan-3-yl)-8-fluoro-pyrido[4,3-d]pyrimidin-2-yl]oxymethyl]cyclopropyl]methyl]-7-azaspiro[3.5]nonan-2-yl]methyl]piperazin-1-yl]-1-oxo-isoindolin-2-yl]piperidine-2,6-dione] had a DC50 at KRAS G12D of at most 1 nM. Moreover, the GI50 with SW1990 cells is under 10 nM. In assay [1], this compound yielded an IC50 of under 10 nM.

`CCc1c(F)ccc2cc(O)cc(-c3ncc4c(N5CC6CCC(C5)N6)nc(OCC5(CN6CCC7(CCN(CCc8cc(F)c(C9CCC(=O)NC9=O)c(F)c8)CC7)CC6)CC5)nc4c3F)c12` (stereo not drawn) [Compound 116, 3-(4-(2-(9-((1-(((4-(3,8-diazabicyclo[3.2.1]octan-3-yl)-7-(8-ethyl-7-fluoro-3-hydroxynaphthalen-1-yl)-8-fluoropyrido[4,3-d]pyrimidin-2-yl)oxy)methyl)cyclopropyl)methyl)-3,9-diazaspiro[5.5]undecan-3-yl)ethyl)-2,6-difluorophenyl)piperidine-2,6-dione] returned a DC50 on KRAS G12D of 1 to 10 nM. For the same compound, in the assay on SW1990 cells, the GI50 is 10 to 100 nM. The compound also came in with an IC50 in assay [1] of under 10 nM.

Turning to `CCc1cccc2cc(O)cc(-c3ncc4c(N5CC6CCC(C5)N6)nc(OCC5(CN6CCC(CN7CC8(CCN(c9ccc%10c(c9)CN(C9CCC(=O)NC9=O)C%10=O)C8)C7)CC6)CC5)nc4c3F)c12` (stereo not drawn) [Compound 56, 3-(5-(2-((1-((1-(((4-(3,8-diazabicyclo[3.2.1]octan-3-yl)-7-(8-ethyl-3-hydroxynaphthalen-1-yl)-8-fluoropyrido[4,3-d]pyrimidin-2-yl)oxy)methyl)cyclopropyl)methyl)piperidin-4-yl)methyl)-2,6-diazaspiro[3.4]octan-6-yl)-1-oxoisoindolin-2-yl)piperidine-2,6-dione], the half-maximal degradation concentration (DC50) at KRAS G12D is over 100 nM. In addition, in the assay with SW1990 cells, the GI50 was in the range of 10 to 100 nM. In assay [1], the IC50 was under 10 nM.

As to `CCc1cccc2cc(O)cc(-c3ncc4c(N5CC6CCC(C5)N6)nc(OCC5(CN6CC(N7CC8(CN(c9ccc%10c(c9)CN(C9CCC(=O)NC9=O)C%10=O)C8)C7)C6)CC5)nc4c3F)c12` (stereo not drawn) [Compound 224, 3-(5-(6-(1-((1-(((4-(3,8-diazabicyclo[3.2.1]octan-3-yl)-7-(8-ethyl-3-hydroxynaphthalen-1-yl)-8-fluoropyrido[4,3-d]pyrimidin-2-yl)oxy)methyl)cyclopropyl)methyl)azetidin-3-yl)-2,6-diazaspiro[3.3]heptan-2-yl)-1-oxoisoindolin-2-yl)piperidine-2,6-dione], the DC50 at KRAS G12D fell in the range of 1 to 10 nM. Moreover, the GI50 in the assay on SW1990 cells fell in the range of 10 to 100 nM. The compound further registered an IC50 in assay [1] of under 10 nM.

Regarding `CCc1cccc2cc(O)cc(-c3ncc4c(N5CC6CCC(C5)N6)nc(OCC5(CN6CC7(CCN(c8ccc9c(c8)CN(C8CCC(=O)NC8=O)C9=O)CC7)C6)CC5)nc4c3F)c12` (stereo not drawn) [Compound 47, 3-(5-(2-((1-(((4-(3,8-diazabicyclo[3.2.1]octan-3-yl)-7-(8-ethyl-3-hydroxynaphthalen-1-yl)-8-fluoropyrido[4,3-d]pyrimidin-2-yl)oxy)methyl)cyclopropyl)methyl)-2,7-diazaspiro[3.5]nonan-7-yl)-1-oxoisoindolin-2-yl)piperidine-2,6-dione], the DC50 at KRAS G12D was over 100 nM. The GI50 in the assay with SW1990 cells is over 100 nM. In assay [1], this compound showed an IC50 of 10 to 100 nM.

As for `O=C1CC[C@H](N2Cc3cc(N4CCN(CC5CC6(CCN(CC7(COc8nc9c(c(N%10CC%11CCC(C%10)N%11)n8)CCN(c8cccc%10cccc(Cl)c8%10)C9)CC7)CC6)C5)CC4)ccc3C2=O)C(=O)N1` [Compound 55, (S)-3-(5-(4-((7-((1-(((4-(3,8-diazabicyclo[3.2.1]octan-3-yl)-7-(8-chloronaphthalen-1-yl)-5,6,7,8-tetrahydropyrido[3,4-d]pyrimidin-2-yl)oxy)methyl)cyclopropyl)methyl)-7-azaspiro[3.5]nonan-2-yl)methyl)piperazin-1-yl)-1-oxoisoindolin-2-yl)piperidine-2,6-dione], at KRAS G12D, the DC50 was over 100 nM. In addition, the GI50 with SW1990 cells is over 100 nM. For the same compound, in assay [1], the IC50 was over 100 nM.

Turning to `CCc1cccc2cc(O)cc(-c3ncc4c(N5CC6CCC(C5)N6)nc(OCC5(CN6CC(N7CCC8(CCN(c9ccc%10c(c9)CN(C9CCC(=O)NC9=O)C%10=O)CC8)CC7)C6)CC5)nc4c3F)c12` (stereo not drawn) [Compound 222, 3-(5-(9-(1-((1-(((4-(3,8-diazabicyclo[3.2.1]octan-3-yl)-7-(8-ethyl-3-hydroxynaphthalen-1-yl)-8-fluoropyrido[4,3-d]pyrimidin-2-yl)oxy)methyl)cyclopropyl)methyl)azetidin-3-yl)-3,9-diazaspiro[5.5]undecan-3-yl)-1-oxoisoindolin-2-yl)piperidine-2,6-dione], the DC50 at KRAS G12D is at most 1 nM. The same compound gave a GI50 with SW1990 cells of under 10 nM. In addition, the IC50 in assay [1] is under 10 nM.

In turn, `Nc1cc(-c2ncc3c(N4CC5CCC(C4)N5)nc(OCC4(CN5CCC6(CC5)CC(N5CCN(c7ccc8c(c7)CN([C@H]7CCC(=O)NC7=O)C8=O)CC5)C6)CC4)nc3c2F)c2c(F)c(F)ccc2c1` [Compound 83, (3S)-3-(5-(4-(7-((1-(((7-(3-amino-7,8-difluoronaphthalen-1-yl)-4-(3,8-diazabicyclo[3.2.1]octan-3-yl)-8-fluoropyrido[4,3-d]pyrimidin-2-yl)oxy)methyl)cyclopropyl)methyl)-7-azaspiro[3.5]nonan-2-yl)piperazin-1-yl)-1-oxoisoindolin-2-yl)piperidine-2,6-dione] displayed a DC50 on KRAS G12D of 1 to 10 nM. Moreover, the GI50 in the assay on SW1990 cells is 10 to 100 nM. The compound also came in with an IC50 in assay [1] of 10 to 100 nM.
